Legend:
[1] = target: T1, Neuropeptide Y receptor type 1 (Homo sapiens, UniProt P25929); type: cell membranes, Membrane; conditions: sk-n-mc; note: in other assays of this panel Not Active means under 50% inhibition at 10 µM
T1 sequence (P25929 whole entry): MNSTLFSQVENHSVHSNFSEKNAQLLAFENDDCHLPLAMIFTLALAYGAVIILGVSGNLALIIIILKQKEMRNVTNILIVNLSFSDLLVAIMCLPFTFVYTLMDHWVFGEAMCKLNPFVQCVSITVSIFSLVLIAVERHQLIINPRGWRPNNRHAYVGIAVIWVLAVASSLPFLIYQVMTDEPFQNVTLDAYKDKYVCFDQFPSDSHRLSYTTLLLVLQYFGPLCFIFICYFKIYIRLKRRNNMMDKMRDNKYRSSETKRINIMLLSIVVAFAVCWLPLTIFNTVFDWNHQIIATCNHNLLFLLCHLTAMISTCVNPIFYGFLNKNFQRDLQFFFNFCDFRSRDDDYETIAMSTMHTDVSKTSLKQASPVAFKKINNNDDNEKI

[2] = target: Sigma non-opioid intracellular receptor 1 (Homo sapiens, UniProt Q99720); assay: DRUGMATRIX: Sigma1 radioligand binding (ligand: [3H] Haloperidol); type: cell membranes, Jurkat, Membrane; conditions: jurkat; Not Active = under 50% inhibition at 10 µM
Melanocortin receptor 5 = Melanocortin receptor 5 (Homo sapiens, UniProt P33032); type: cell membranes, HEK293, Membrane; conditions: hek293; note: in other assays of this panel Not Active means under 50% inhibition at 10 µM
[3] = target: Sodium-dependent dopamine transporter (Homo sapiens, UniProt Q01959); assay: DRUGMATRIX: Dopamine Transporter radioligand binding (ligand: [125I] RTI-55); type: cell membranes, CHO-K1, Membrane; conditions: Not Active = under 50% inhibition at 10 µM; for Ki: read-out: Ki
Estrogen receptor = target: T2, Estrogen receptor (Homo sapiens, UniProt P03372); conditions: sf9; note: in other assays of this panel Not Active means under 50% inhibition at 10 µM
T2 sequence (P03372 whole entry): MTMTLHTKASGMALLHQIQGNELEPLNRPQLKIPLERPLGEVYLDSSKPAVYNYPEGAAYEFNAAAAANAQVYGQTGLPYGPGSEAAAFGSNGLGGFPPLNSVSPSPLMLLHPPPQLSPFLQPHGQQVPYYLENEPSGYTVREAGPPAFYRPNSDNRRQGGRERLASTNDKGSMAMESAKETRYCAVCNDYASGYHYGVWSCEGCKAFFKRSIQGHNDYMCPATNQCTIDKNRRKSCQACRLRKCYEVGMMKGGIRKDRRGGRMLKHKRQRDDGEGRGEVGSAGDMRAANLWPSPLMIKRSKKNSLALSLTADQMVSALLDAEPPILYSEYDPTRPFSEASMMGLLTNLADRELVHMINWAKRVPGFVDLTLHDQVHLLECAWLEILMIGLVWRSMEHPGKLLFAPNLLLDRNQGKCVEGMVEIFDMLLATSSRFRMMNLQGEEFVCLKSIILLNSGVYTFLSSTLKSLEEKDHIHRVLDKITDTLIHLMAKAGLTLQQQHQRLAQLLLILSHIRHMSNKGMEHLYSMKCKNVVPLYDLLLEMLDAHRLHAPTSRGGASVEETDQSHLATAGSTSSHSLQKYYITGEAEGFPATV

[4] = DRUGMATRIX: Atrial Natriuretic Factor (ANF) radioligand binding (ligand: [125I] ANF (rat)); type: cell membranes, Cavia porcellus, Dunkin-Hartley, Adrenal gland, Membrane; conditions: Not Active = under 50% inhibition at 10 µM
Cytochrome P450 3A4 = Cytochrome P450 3A4 (Homo sapiens, UniProt P08684); conditions: bti-tn-5b1-4; note: in other assays of this panel Not Active means under 50% inhibition at 10 µM
Sequence of Cytochrome P450 3A4 (P08684 whole entry): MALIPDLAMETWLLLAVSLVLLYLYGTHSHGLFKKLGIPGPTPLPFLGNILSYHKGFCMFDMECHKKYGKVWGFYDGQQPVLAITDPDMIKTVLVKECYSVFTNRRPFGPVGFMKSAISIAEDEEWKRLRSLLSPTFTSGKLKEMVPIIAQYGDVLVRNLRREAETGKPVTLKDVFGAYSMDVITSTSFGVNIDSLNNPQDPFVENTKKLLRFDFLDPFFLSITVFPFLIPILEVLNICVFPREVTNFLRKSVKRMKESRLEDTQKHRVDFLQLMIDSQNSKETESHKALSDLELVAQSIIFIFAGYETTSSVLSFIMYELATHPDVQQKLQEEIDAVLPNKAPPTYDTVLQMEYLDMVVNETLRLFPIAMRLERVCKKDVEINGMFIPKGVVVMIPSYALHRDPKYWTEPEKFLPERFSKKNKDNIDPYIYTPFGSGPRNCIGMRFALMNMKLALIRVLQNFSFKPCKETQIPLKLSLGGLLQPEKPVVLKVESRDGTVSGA

Sequence of Sigma non-opioid intracellular receptor 1 (Q99720 whole entry): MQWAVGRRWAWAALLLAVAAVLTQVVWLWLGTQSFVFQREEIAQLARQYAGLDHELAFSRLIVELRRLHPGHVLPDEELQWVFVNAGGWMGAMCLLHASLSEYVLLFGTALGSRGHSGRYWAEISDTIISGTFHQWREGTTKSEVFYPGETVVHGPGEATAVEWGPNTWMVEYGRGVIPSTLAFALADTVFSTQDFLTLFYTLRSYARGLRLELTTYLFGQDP
Sequence of Sodium-dependent dopamine transporter (Q01959 whole entry): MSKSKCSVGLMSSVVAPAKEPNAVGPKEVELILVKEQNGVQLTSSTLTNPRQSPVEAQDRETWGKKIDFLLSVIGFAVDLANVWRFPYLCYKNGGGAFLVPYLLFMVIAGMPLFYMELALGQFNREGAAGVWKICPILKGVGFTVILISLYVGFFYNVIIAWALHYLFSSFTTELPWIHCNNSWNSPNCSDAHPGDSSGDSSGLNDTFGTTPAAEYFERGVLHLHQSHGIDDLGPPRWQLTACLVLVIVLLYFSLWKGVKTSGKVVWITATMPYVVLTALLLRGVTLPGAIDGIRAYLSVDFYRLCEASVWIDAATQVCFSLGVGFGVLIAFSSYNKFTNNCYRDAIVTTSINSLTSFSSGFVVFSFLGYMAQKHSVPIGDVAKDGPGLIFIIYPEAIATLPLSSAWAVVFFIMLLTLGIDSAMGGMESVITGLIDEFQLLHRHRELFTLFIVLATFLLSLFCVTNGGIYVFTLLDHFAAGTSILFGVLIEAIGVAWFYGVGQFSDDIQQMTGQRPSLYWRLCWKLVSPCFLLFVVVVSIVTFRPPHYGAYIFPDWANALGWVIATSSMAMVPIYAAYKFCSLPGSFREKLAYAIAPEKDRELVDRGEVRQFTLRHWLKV
Sequence of Melanocortin receptor 5 (P33032 whole entry): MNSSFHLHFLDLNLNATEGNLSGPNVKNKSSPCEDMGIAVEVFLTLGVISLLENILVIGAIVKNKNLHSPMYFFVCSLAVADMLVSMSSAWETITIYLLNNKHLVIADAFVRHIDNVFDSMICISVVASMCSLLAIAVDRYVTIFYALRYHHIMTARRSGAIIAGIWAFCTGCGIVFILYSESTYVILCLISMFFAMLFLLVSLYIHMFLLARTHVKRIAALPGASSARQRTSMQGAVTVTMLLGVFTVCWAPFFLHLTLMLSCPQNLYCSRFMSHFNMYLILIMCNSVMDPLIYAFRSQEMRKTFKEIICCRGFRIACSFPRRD

SMILES | IC50 [1] | IC50 [2] | IC50 (Melanocortin receptor 5) | IC50 ([3]; cho-k1) | IC50 (Estrogen receptor) | IC50 [4] | Ki [4] | IC50 (Cytochrome P450 3A4) | Ki (Cytochrome P450 3A4) | IC50 ([3]; read-out: IC50) [µM] | Ki [3] [µM]
CCOc1nc2cccc(C(=O)O)c2n1Cc1ccc(-c2ccccc2-c2nnn[nH]2)cc1 | Not Active | Not Active | Not Active | Not Active | Not Active | Not Active | Not Active | – | – | – | –
COc1ccccc1N | Not Active | Not Active | Not Active | Not Active | – | Not Active | Not Active | Not Active | Not Active | – | –
Cc1c(O)cccc1C(=O)N[C@@H](CSc1ccccc1)[C@H](O)CN1C[C@H]2CCCC[C@H]2C[C@H]1C(=O)NC(C)(C)C | Not Active | Not Active | Not Active | – | – | Not Active | Not Active | – | – | 15.5 | 12.3
C[C@H]1O[C@H](O[C@H]2[C@H](O)[C@@H](O)[C@@H](O[C@H]3[C@H](O)[C@@H](O)C(O)O[C@@H]3CO)O[C@@H]2CO)[C@H](O)[C@@H](O)[C@@H]1N[C@H]1C=C(CO)[C@@H](O)[C@H](O)[C@H]1O (some centres undefined) [ACARBOSE] | Not Active | Not Active | Not Active | Not Active | – | Not Active | Not Active | Not Active | Not Active | – | –
NC12CC3CC(CC(C3)C1)C2 [AMANTADINE] | Not Active | Not Active | Not Active | Not Active | – | Not Active | Not Active | – | – | – | –
CC(C)c1c(C(=O)Nc2ccccc2)c(-c2ccccc2)c(-c2ccc(F)cc2)n1CC[C@@H](O)C[C@@H](O)CC(=O)O [ATORVASTATIN] | Not Active | Not Active | Not Active | Not Active | – | Not Active | Not Active | – | – | – | –
C[C@H]1[C@H](NC(=O)/C(=N\OC(C)(C)C(=O)O)c2csc(N)n2)C(=O)N1S(=O)(=O)O [AZTREONAM] | Not Active | Not Active | Not Active | Not Active | – | Not Active | Not Active | Not Active | Not Active | – | –
COc1cc(OC)c(C(=O)CCCN2CCCC2)c(OC)c1 [BUFLOMEDIL] | Not Active | – | Not Active | Not Active | – | Not Active | Not Active | – | – | – | –
Cn1c(=O)c2c(ncn2C)n(C)c1=O [CAFFEINE] | Not Active | Not Active | Not Active | Not Active | – | Not Active | Not Active | Not Active | Not Active | – | –
CO/N=C(\C(=O)N[C@@H]1C(=O)N2C(C(=O)O)=C(COC(C)=O)CS[C@H]12)c1csc(N)n1 [CEFOTAXIME] | Not Active | Not Active | Not Active | Not Active | – | Not Active | Not Active | Not Active | Not Active | – | –
Cc1cc(O)cc(C)c1Cl [CHLOROXYLENOL] | Not Active | Not Active | Not Active | Not Active | – | Not Active | Not Active | Not Active | Not Active | – | –
NS(=O)(=O)c1cc(C2(O)NC(=O)c3ccccc32)ccc1Cl (centres undefined) [CHLORTHALIDONE] | Not Active | Not Active | Not Active | Not Active | – | Not Active | Not Active | Not Active | Not Active | – | –
CN1CCN(C(c2ccccc2)c2ccccc2)CC1 [CYCLIZINE] | Not Active | – | Not Active | – | Not Active | Not Active | Not Active | Not Active | Not Active | 0.763 | 0.606
COc1cccc2c1C(=O)c1c(O)c3c(c(O)c1C2=O)C[C@@](O)(C(C)=O)C[C@@H]3O[C@H]1C[C@H](N)[C@H](O)[C@H](C)O1 [DAUNORUBICIN] | Not Active | Not Active | Not Active | Not Active | – | Not Active | Not Active | Not Active | Not Active | – | –
C[S+](C)[O-] [DIMETHYL SULFOXIDE] | Not Active | Not Active | Not Active | Not Active | – | Not Active | Not Active | Not Active | Not Active | – | –
C[C@]12CC[C@@H]3c4ccc(O)cc4CC[C@H]3[C@@H]1C[C@@H](O)[C@@H]2O [ESTRIOL] | Not Active | Not Active | Not Active | Not Active | – | Not Active | Not Active | Not Active | Not Active | – | –
C#C[C@]1(O)CC[C@H]2[C@@H]3CCC4=CC(=O)CC[C@]4(C)[C@H]3CC[C@@]21C [ETHISTERONE] | Not Active | Not Active | Not Active | Not Active | – | Not Active | Not Active | Not Active | Not Active | – | –
CC(O)(P(=O)(O)O)P(=O)(O)O [ETIDRONIC ACID] | Not Active | Not Active | Not Active | Not Active | – | Not Active | Not Active | Not Active | Not Active | – | –
O=C(O)P(=O)(O)O [FOSCARNET] | Not Active | Not Active | Not Active | Not Active | – | Not Active | Not Active | Not Active | Not Active | – | –
O=c1c(-c2ccc(O)cc2)coc2cc(O)cc(O)c12 [GENISTEIN] | Not Active | Not Active | Not Active | – | – | Not Active | Not Active | Not Active | Not Active | 16.9 | 13.4
C[N+](C)(C)C[C@H](O)CC(=O)[O-] [LEVOCARNITINE] | Not Active | Not Active | Not Active | Not Active | – | Not Active | Not Active | Not Active | Not Active | – | –
C[C@H]1COc2c(N3CCN(C)CC3)c(F)cc3c(=O)c(C(=O)O)cn1c23.C[C@H]1COc2c(N3CCN(C)CC3)c(F)cc3c(=O)c(C(=O)O)cn1c23.O [LEVOFLOXACIN] | Not Active | Not Active | Not Active | Not Active | – | Not Active | Not Active | – | – | – | –
CN(C)C(=N)NC(=N)N [METFORMIN] | Not Active | Not Active | Not Active | Not Active | – | Not Active | Not Active | Not Active | Not Active | – | –
CS(=O)(=O)Nc1ccc([N+](=O)[O-])cc1Oc1ccccc1 [NIMESULIDE] | Not Active | Not Active | Not Active | – | – | Not Active | Not Active | Not Active | Not Active | 14.9 | 11.8
COc1ccc2c(c1OC)C(=O)O[C@@H]2[C@H]1c2c(cc3c(c2OC)OCO3)CCN1C [NOSCAPINE] | Not Active | Not Active | Not Active | Not Active | – | Not Active | Not Active | Not Active | Not Active | – | –
NC(=O)N1c2ccccc2CC(=O)c2ccccc21 [OXCARBAZEPINE] | Not Active | Not Active | Not Active | Not Active | – | Not Active | Not Active | Not Active | Not Active | – | –
N=C(N)c1ccc(OCCCCCOc2ccc(C(=N)N)cc2)cc1 [PENTAMIDINE] | Not Active | Not Active | Not Active | – | Not Active | Not Active | Not Active | – | – | – | –
CCN(CC)CCNC(=O)c1ccc(N)cc1 [PROCAINAMIDE] | Not Active | Not Active | Not Active | Not Active | – | Not Active | Not Active | Not Active | Not Active | – | –
